Data as given in paper PMC4859512, “Polyamino-Isoprenic Derivatives Block Intrinsic Resistance of P. aeruginosa to Doxycycline and Chloramphenicol In Vitro” (PLoS ONE, 2016).
Where “and” joins values, the source holds several entries; their conditions need not be identical. Identical values can stand only once.

Legend:
[1] = system: P. aeruginosa PT629 (Mex AB overproducer); experiment: Antibiotic susceptibility testing (broth micro-dilution MIC), strain PT629; format: cell-based, Pseudomonas aeruginosa
[2] = system: P. aeruginosa PA01 ERY^R (Mex CD overproducer); experiment: microbe, parasite or virus in culture; format: cell-based, Pseudomonas aeruginosa
[3] = system: P. aeruginosa PA0-7H (Mex EF overproducer); experiment: Antibiotic susceptibility testing (broth micro-dilution MIC), strain PA0-7H; format: cell-based, Pseudomonas aeruginosa
[4] = system: P. aeruginosa CMZ091 (Mex XY overproducer); experiment: Antibiotic susceptibility testing (broth micro-dilution MIC), strain CMZ091; format: cell-based, Pseudomonas aeruginosa
[5] = system: P. aeruginosa PA01; experiment: Comparison of efficiency between compounds and PAßN (compound gradient with 2 mg/L doxycycline); format: cell-based, Pseudomonas aeruginosa; details: for concentration needed to inhibit growth in the presence of doxycycline: PA01, doxycycline 2 mg/L, 18 h
Experimental: Serial dilutions of each compound (from 270 μM to 0.95 μM for PAßN and from 135 μM to 0.06 μM for 3) were prepared in microplates. Doxycycline (2 mg/L) was then added to each well before inoculation of bacteria (5x10^5 cfu/mL). Optical density (600 nm) was measured after 18 hours at 37°C. Only the relevant part of the graphs are shown. Experiments were performed in triplicate.
First, we performed a checkerboard assay to analyze the synergy between doxycycline and the polyamino-isoprenic compound and between doxycycline and PAβN. For both, compound 3 and PAβN we observed a synergistic inhibition of growth when combined with doxycycline with a FIC Index of 0.09 (S2 Table). […] PAßN is generally used at a concentration greater than 10 μM to inhibit the resistance of P. aeruginosa with respect to various antibiotics, and, to our knowledge, no data have been reported in the literature on its use in combination with doxycycline. The percentage of growth inhibition was monitored as a function of compound concentration, and the results are presented in Fig 3.

[6] = system: P. aeruginosa strains over-expressing efflux pumps (PA01, PT629, PA01-ERY^R, PA0-7H, CMZ091, FB1); experiment: Spotting of logarithmic dilutions on MH agar with antibiotic and compound 3; format: cell-based, Pseudomonas aeruginosa
Experimental: In a second experiment, 5 μL of logarithmic dilutions of an overnight culture of the 6 strains described in Table 1 were spotted on the MH agar plates prepared as above. An additional assay was also performed with these 6 strains using chloramphenicol as antibiotic instead of doxycycline.
Fig 4 Compound 3 activity against P. aeruginosa strains over-expressing efflux pumps. The ability of bacteria to grow under various conditions was assessed in solid media containing, in a: 2 mg/L doxycycline (left) or a combination of 2 mg/L doxycycline and 10 μM compound 3 (right) and in b: 4 mg/L chloramphenicol (left) or a combination of 4 mg/L chloramphenicol and 10 μM compound 3 (right). 5 μL of logarithmic dilutions of an overnight culture of each strain were spotted on the plates. From top to bottom, PA01, PT629, PA01-ERY^R, PA0-7H, CMZ091 and FB1.

[7] = system: CHO-K1 cells; experiment: cells; format: cell-based, Chinese Hamster; details: Cricetulus griseus, CHO-K1; WST1, 24 h; mean +/- SD, 2 independent experiments
Experimental: CHO-K1 cells (ATCC-LGC Standards Sarl (Molsheim, France) and human fibroblasts (Clinisciences, Paris, France) were maintained in McCoy’s 5A and DMEM media, respectively, supplemented with 10% bovine calf serum, 2 mM glutamine, and 100 U/mL/10 μg/mL penicillin/streptomycin. They were incubated at 37°C in a humidified atmosphere containing 5% CO2. The cell lines were seeded in 96-well plates and incubated overnight. The cytotoxic effects of compounds were assessed by the colorimetric WST-1 cell proliferation assay as previously described. Briefly, a range of compound concentrations from 30 μM to 1200 μM was added to triplicate cultures, and cells were incubated at 37°C for 24 h. At the end of the incubation period, cultures were washed three times with phosphate buffer saline (PBS) and incubated in fresh culture medium containing 10% WST-1 for an additional 30 min. Cell viability was evaluated by measuring the WST-1 absorbance at 450 nm in a microplate spectrophotometer MRX1 II (Dynex technologies, Chantilly, VA, USA). The Inhibitory Concentration 50% (IC50) was chosen to evaluate the cytotoxicity of compounds. IC50 was defined as the concentration of a compound that induced a 50% decrease in viable cells. Doxorubicin was used as a positive control.

[8] = Pseudomonas aeruginosa, read-out: Minimal Inhibitory Concentration

## CC(C)=CCCC(C)=CCCC(C)=CCNCCCNCCCCNCCCN [Compound 3]
[1]; PT629, compound 10µM
  MIC of Amikacin in the presence of the compound: 64 mg/L
  MIC of Ceftazidime in the presence of the compound: 8 mg/L
  MIC of Ciprofloxacin in the presence of the compound: 0.5 mg/L
  MIC of Ticarcillin in the presence of the compound: 64 mg/L
[1]; [8]
  MIC: 25 µg/mL and 62.5 µM
[2]; PA01 ERY R, compound 10µM
  MIC of Amikacin in the presence of the compound: 32 mg/L
  MIC of Ceftazidime in the presence of the compound: 2 mg/L
  MIC of Ciprofloxacin in the presence of the compound: 0.125 mg/L
  MIC of Ticarcillin in the presence of the compound: 16 mg/L
[2]; [8]
  MIC: 25 µg/mL and 62.5 µM
[3]; PA0-7H (overproduces MexEF), compound 10 µM
  decrease of MIC of ciprofloxacin: 4 times
[3]; PA0-7H, compound 10µM
  MIC of Amikacin in the presence of the compound: 64 mg/L
  MIC of Ceftazidime in the presence of the compound: 1 mg/L
  MIC of Ciprofloxacin in the presence of the compound: 1 mg/L
  MIC of Ticarcillin in the presence of the compound: 4 mg/L
[3]; [8]
  MIC: 25 µg/mL and 62.5 µM
[4]; CMZ091, compound 10µM
  MIC of Amikacin in the presence of the compound: > 64 mg/L
  MIC of Ceftazidime in the presence of the compound: 2 mg/L
  MIC of Ciprofloxacin in the presence of the compound: 0.25 mg/L
  MIC of Ticarcillin in the presence of the compound: 8 mg/L
[4]; [8]
  MIC: 25 µg/mL and 62.5 µM
[5]
  concentration needed to inhibit growth in the presence of doxycycline: ~1.22 mg/L
[5]; graphically determined on Fig 3
  concentration needed to inhibit growth in the presence of doxycycline: approximately 3 μM
[5]; adjuvant of doxycycline
  potency in comparison with PAßN: approximately 10 times
[6]; 2 μg/mL doxycycline + 10 μM compound 3, PA01 or strains overproducing MexCD or MexEF
  dilution of overnight culture at which growth was observed: 10^−2
[6]; 2 μg/mL doxycycline + 10 μM compound 3, all cases
  dilution above which no growth was observed: 10^−5
[6]; 2 μg/mL doxycycline + 10 μM compound 3, cells overproducing MexAB or MexXY
  dilution of overnight culture at which growth was observed: 10^−4
[6]; 2 μg/mL doxycycline + 10 μM compound 3, ΔmexB strain
  growth on agar: did not grow at any of the dilutions
[6]; 4 mg/L chloramphenicol + 10 μM compound 3, PT629 and PA0-7H
  effect on growth with chloramphenicol: slight effect
[7]
  IC50: 320 ± 41.2 µM
